Reference: patent US9254269B2, “Method of managing hypercortisolemia, headache disorders, neuropathic pain and related disorders” (Indus Biotech Private Limited, priority 2011, dated 2016)

How the values were obtained:
5-HT1A receptor = biological target: T1, 5-HT1A receptor (Mus musculus, UniProt Q64264); experiment: Forced swim test, alone and after 5-HT1A receptor antagonist NAN-190; format: in vivo, Swiss albino mice; conditions: NAN-190 1 mg/kg p.o. alone
T1 construct: Male Swiss albino mice weighing 25-30 g were treated with antagonist of 5-HT1A receptor (NAN-190); from tissue; host or cells: whole living animal (male Swiss albino mice)
T1 sequence (Q64264 1-421): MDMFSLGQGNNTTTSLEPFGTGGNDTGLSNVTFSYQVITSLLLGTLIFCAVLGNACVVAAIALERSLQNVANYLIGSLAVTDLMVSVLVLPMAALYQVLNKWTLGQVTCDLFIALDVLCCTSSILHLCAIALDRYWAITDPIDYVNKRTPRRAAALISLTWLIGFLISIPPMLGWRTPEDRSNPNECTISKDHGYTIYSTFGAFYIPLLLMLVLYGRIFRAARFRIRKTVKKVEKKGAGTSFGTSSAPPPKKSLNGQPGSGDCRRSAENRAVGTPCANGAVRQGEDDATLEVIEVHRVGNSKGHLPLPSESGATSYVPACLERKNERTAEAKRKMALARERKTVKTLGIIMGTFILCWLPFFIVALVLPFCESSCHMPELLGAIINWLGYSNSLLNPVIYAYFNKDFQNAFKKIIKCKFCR
Procedure: The activity of the test composition was evaluated by first blocking the 5-HT1A receptor with an antagonist followed by treatment with the test composition. The activity was measured in terms of immobility time of the test animals subjected to forced swim test.
Procedure: Male Swiss albino mice weighing 25-30 g were treated with antagonist of 5-HT1A receptor (NAN-190) at 1 mg/kg (p.o.) followed by administration of test composition at either 10 mg/kg (p.o.) or 30 mg/kg (p.o.). One hour after treatment, the animals were subjected to forced swim test and the immobility time was measured. A cut-off time of 360 sec was used.

[1] = tested on: Nitroglycerine induced hyperalgesia in rats; experiment: Tail flick response latency in nitroglycerine induced hyperalgesia, oral treatment; test composition 41% asiaticoside and 36% madecassoside; format: in vivo, Wistar rats; conditions: 20 mg/kg p.o.

Compound	Immobility Time (5-HT1A receptor) [s]	% Reduction in Immobility Time (5-HT1A receptor; vs Normal Control) [%]	Response latency in tail flick ([1]; 0 min after treatment, 20 seconds cut off)	Response latency in tail flick ([1]; 30 min after treatment)	Response latency in tail flick ([1]; 60 min after treatment)	Response latency in tail flick ([1]; 90 min after treatment)	Response latency in tail flick ([1]; 120 min after treatment)	Response latency in tail flick ([1]; 180 min after treatment)	Response latency in tail flick ([1]; 240 min after treatment)
COc1ccccc1N1CCN(CCCCN2C(=O)c3ccccc3C2=O)CC1 [NAN-190]	232.0 ± 1.63	−8.26	–	–	–	–	–	–	–
CC(C)=CCN1CCC2(C)c3cc(O)ccc3CC1C2C (stereo not drawn) [Pentazocine]	–	–	8.42 ± 0.22	15.27 ± 0.26	15.23 ± 0.17	15.78 ± 0.24	15.50 ± 0.48	15.18 ± 0.45	15.03 ± 0.28
